The source made the active and inactive calls. The calls are words filed in the database; no cut-off is given here.
What was measured:
[1] = system: Transthyretin (Homo sapiens), P02766 [V50M]; test: Stabilization of TTR V30M mutant (unknown origin) assessed as suppression of TTR tetramer dissociation at 3 uM incubated for 9 days by glutaraldehyde cross-linking assay based SDS-PAGE analysis relative to control; conditions: time 9.0 day
[2] = system: Transthyretin (Homo sapiens), P02766 [V142I]; test: Stabilization of TTR V142I mutant (unknown origin) expressed in Escherichia coli assessed as reduction in trypsin-induced aggregation incubated for 3 to 4 days by absorbance method; conditions: time 3-4 day
[3] = biological target: T1, Transthyretin (Homo sapiens, UniProt P02766); test: Stabilization of wild type TTR (unknown origin) expressed in Escherichia coli assessed as reduction in methanol-induced aggregation at 50 uM incubated for 60 min by absorbance method
[4] = system: Transthyretin (Homo sapiens), P02766 [V50M]; test: (§1) Stabilization of TTR V30M mutant (unknown origin) assessed as acid-mediated protein aggregation inhibition ratio incubated for 1 week by absorbance method; conditions: time 1.0 weeks
[5] = biological target: T2, Transthyretin (Homo sapiens, UniProt P02766, V50M); test: as §1
[6] = system: Transthyretin (Homo sapiens), P02766 [V50M]; test: Stabilization of TTR V30M mutant (unknown origin) assessed as suppression of TTR tetramer dissociation at 1 to 10 uM incubated for 9 days by glutaraldehyde cross-linking assay based SDS-PAGE analysis; conditions: dose 1-10 µM, time 9.0 day
[7] = biological target: T2, Transthyretin; test: Binding affinity to TTR V30M mutant (unknown origin) expressed in Escherichia coli incubated for 60 mins by tryptophan intrinsic fluorescence method; conditions: read-out: Kd(app)
[8] = biological target: T1, Transthyretin; test: Stabilization of wild type TTR (unknown origin) expressed in Escherichia coli assessed as reduction in methanol-induced aggregation incubated for 60 min by absorbance method
[9] = biological target: T2, Transthyretin; test: Binding affinity to TTR V30M mutant (unknown origin) by isothermal titration calorimetry

CSc1nc2cc(Cl)c(Oc3cccc(Cl)c3Cl)cc2[nH]1 [TRICLABENDAZOLE]
Activity [1]: 100% | Activity [2]: Dose-Dependent Effect | Activity [3]: Active | Activity [4]: Dose-Dependent Effect | IC50 [5]: 3500 nM | Activity [6]: Active

CC(C)c1ccc2oc3nc(N)c(C(=O)O)cc3c(=O)c2c1 [AMLEXANOX]
Kd [7]: 20 µM

Cc1ccc(C(=O)c2cc(O)c(O)c([N+](=O)[O-])c2)cc1
Activity [1]: 100% | Activity [2]: Dose-Dependent Effect | Activity [4]: Dose-Dependent Effect | Activity [6]: Active

CC(C)=COc1ccc(/C=C/C(O)c2ccc(OC=C(C)C)cc2OCC(=O)O)cc1 (stereo not drawn)
Kd [7]: 6.5 µM

Oc1c(Cl)cc(Cl)cc1Sc1cc(Cl)cc(Cl)c1O [BITHIONOL]
Activity [1]: 100% | Activity [2]: Dose-Dependent Effect | IC50 [8]: 3 µM | Kd [9]: 62 nM | Kd [7]: 1.1 µM | Activity [4]: Dose-Dependent Effect | IC50 [5]: 2400 nM | Activity [6]: Active

O=C(O)c1ccc2nc(-c3cc(Cl)cc(Cl)c3)oc2c1
Activity [1]: 100% | Activity [2]: Dose-Dependent Effect | Activity [3]: Active | Activity [4]: Dose-Dependent Effect | Activity [6]: Active

O=C(O)c1cc(-c2ccc(F)cc2F)ccc1O
Activity [4]: Dose-Dependent Effect | Activity [6]: Active

Oc1ccc(Cl)cc1Cc1cc(Cl)ccc1O
Activity [6]: Active

Source: ChEMBL document CHEMBL4831538, “Repositioning of the Anthelmintic Drugs Bithionol and Triclabendazole as Transthyretin Amyloidogenesis Inhibitors” (J Med Chem, 2021)
